Converted amounts (≈) assume the structure as drawn.
Key:
[1] = target: T1, human soluble guanylate cyclase alpha 1 and beta 1 subunits (sGC) stably expressed in Chinese hamster ovary cells (Homo sapiens, UniProt Q02108+Q02153); assay: sGC cellular activator assay: cGMP in CHO cells expressing human sGC, preincubated with ODQ; format: cell-based; settings: 40 microM ODQ preincubation, 30 min at room temperature, presence or absence of 50% human serum not given, read-out: EC50 nM, Activity of Compounds in Cellular Assay
T1 construct: expressed in transfected cells; host or cells: Chinese hamster ovary cells, stably transfected
T1 sequence (Q02108 1-690 partner): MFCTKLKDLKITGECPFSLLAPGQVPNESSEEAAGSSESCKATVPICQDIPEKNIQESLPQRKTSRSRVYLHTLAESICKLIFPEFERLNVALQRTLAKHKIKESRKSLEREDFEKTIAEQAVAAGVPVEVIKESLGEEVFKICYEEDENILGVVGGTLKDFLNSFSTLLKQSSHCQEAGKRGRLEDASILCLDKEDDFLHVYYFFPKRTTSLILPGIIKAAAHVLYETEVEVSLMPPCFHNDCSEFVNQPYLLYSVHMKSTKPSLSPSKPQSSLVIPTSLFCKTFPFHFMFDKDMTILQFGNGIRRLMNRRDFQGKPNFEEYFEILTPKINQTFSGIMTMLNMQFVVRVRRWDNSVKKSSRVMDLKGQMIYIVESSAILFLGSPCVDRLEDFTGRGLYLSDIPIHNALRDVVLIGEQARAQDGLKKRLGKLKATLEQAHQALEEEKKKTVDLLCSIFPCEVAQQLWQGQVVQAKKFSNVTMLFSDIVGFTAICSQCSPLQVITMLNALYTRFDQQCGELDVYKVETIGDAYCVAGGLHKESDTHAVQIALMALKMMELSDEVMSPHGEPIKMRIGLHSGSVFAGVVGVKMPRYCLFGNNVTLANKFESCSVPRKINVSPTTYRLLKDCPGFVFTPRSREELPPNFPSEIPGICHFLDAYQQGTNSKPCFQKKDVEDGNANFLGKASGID
T1 sequence (Q02153 1-619): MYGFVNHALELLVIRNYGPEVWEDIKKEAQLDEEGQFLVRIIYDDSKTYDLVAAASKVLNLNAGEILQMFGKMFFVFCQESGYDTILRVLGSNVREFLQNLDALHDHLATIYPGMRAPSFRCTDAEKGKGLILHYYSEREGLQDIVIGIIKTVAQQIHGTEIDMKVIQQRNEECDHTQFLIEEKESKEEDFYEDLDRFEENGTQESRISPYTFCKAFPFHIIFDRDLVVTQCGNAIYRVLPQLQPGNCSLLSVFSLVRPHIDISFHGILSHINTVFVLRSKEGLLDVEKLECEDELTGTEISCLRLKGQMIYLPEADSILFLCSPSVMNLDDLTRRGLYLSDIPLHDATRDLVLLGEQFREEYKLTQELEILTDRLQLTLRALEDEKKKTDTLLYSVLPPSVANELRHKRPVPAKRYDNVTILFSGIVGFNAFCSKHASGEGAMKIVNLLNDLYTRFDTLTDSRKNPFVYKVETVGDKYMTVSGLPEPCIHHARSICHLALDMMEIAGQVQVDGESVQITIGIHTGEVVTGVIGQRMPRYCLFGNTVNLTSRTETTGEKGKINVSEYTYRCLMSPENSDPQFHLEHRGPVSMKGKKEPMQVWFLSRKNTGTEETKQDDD
Procedure, shortened: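 EC50 values derive from HTRF cGMP measurement after test compounds act for thirty minutes at room temperature, with or without 50% human serum. Before dosing, the sGC-transfected CHO cells spend one hour with the inhibitor ODQ (40 microM) in IBMX- and 0.1% BSA-containing buffer.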

[2] = Assessment of solubility: HT solubility in pION buffer, UV spectrophotometry; settings: kinetic from dmso stock
[3] = target: T2, Recombinant human soluble guanylate cyclase (sGC), alpha 1 / beta 1 subunits, heme-free (Homo sapiens, UniProt Q02108+Q02153); assay: Molecular assay: cGMP formation by heme-free recombinant sGC (CisBio cGMP detection kit); format: biochemical; settings: 300 pM heme-free sGC, 37° C., 60 min, cGMP readout; read-out: EC50 nM, Activity of Compounds in Molecular Assay
T2 construct: histidine tag (C); made in house; host or cells: Sf9 insect cells (baculovirus coinfection)
T2 sequence (Q02108 1-690 partner): T1 sequence (Q02108 1-690 partner)
T2 sequence (Q02153 1-619): T1 sequence (Q02153 1-619)
Procedure, shortened: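 Heme-free His-tagged sGC (Sf9-expressed, Tween 20-treated lysate) at 300 pM incubated with compounds (1% DMSO) for 60 min at 37° C in MOPS pH 6.8 with 50 nM GTP, IBMX, TCEP. cGMP quantified by HTRF against calibration curve; EC50 from combined undiluted/diluted values.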

[4] = pION system solution buffer, pH 4.5, pH 4.5, aqueous buffer, Solubility (pH 4.5), pH 4.5 buffer, 16-19 h incubation, 1.0% DMSO
[5] = pION system solution buffer, pH 7.4, pH 7.4, aqueous buffer, Solubility (pH 7.4), pH 7.4 buffer, 16-19 h incubation, 1.0% DMSO
[6] = pH 6.8, aqueous buffer, Solubility (pH 6.8), pH 6.8

| Compound | EC50 [1] [nM] | solubility [2, 4] [µg/mL] | solubility [2, 5] [µg/mL] | EC50 [3] [nM] | solubility [2, 6] [µg/mL] |
| --- | --- | --- | --- | --- | --- |
| Cc1cc(CN2CCS(=O)(=O)CC2)ccc1COc1c(C)cccc1-c1csc(N2C[C@H]3CC[C@@H](C2)[C@H]3C(=O)O)n1 [Compound 203] | 68 | 3 (≈ 5.04 µM) | > 59 | 23 |  |
| Cc1ccc(OCc2ccc(CN3CCS(=O)(=O)CC3)cc2C)c(-c2csc(N3CCC(C(=O)O)C(C)C3)n2)c1 (stereo not drawn) [Compound 204] | 17 | 0.35 (≈ 0.6 µM) | 54 (≈ 92.5 µM) | 28 |  |
| Cc1cc(CN2CCS(=O)(=O)CC2)ccc1COc1c(C)cccc1-c1csc(N2C3CCC2CC(C(=O)O)C3)n1 (stereo not drawn) [Compound 205] | 200 | 9.5 (≈ 15.9 µM) | > 59 | 80 |  |
| Cc1cc(CN2CCOCC2)ccc1COc1c(C)cccc1-c1csc(N2C[C@H]3CC[C@@H](C2)[C@H]3C(=O)O)n1 [Compound 206] | 88 | > 58 | > 58 | 170 |  |
| Cc1cc(CN2CCS(=O)(=O)CC2)ccc1COc1ccc(Cl)cc1-c1csc(N2C3CCC2CC(C(=O)O)C3)n1 (stereo not drawn) [Compound 207] | 93 | 0.95 (≈ 1.54 µM) | 30 (≈ 48.7 µM) | 170 |  |
| Cc1cc(C(=O)N2CCCCC2)ccc1COc1c(C)cccc1-c1csc(N2C[C@H]3CC[C@@H](C2)[C@H]3C(=O)O)n1 [Compound 208] | 39 | 0.3 (≈ 0.536 µM) | > 55 | 250 |  |
| Cc1cc(C(=O)N2CCCCC2)ccc1COc1c(C)cccc1-c1csc(N2C3CCC2CC(C(=O)O)C3)n1 (stereo not drawn) [Compound 209] | 96 | 5.1 (≈ 9.11 µM) | > 55 | 270 |  |
| Cc1cc(CN2CCOCC2)ccc1COc1c(C)cccc1-c1csc(N2C3CCC2CC(C(=O)O)C3)n1 (stereo not drawn) [Compound 210] | 430 | > 58 | > 58 | 350 |  |
| Cc1cc(CN2CCS(=O)(=O)CC2)ccc1COc1ccc(Cl)cc1-c1csc(N2CC3CCC(C2)C3C(=O)O)n1 (stereo not drawn) [Compound 211] | 190 | 1.4 (≈ 2.27 µM) | 17 (≈ 27.6 µM) | 370 |  |
| Cc1ccc(OCc2ccc(C(=O)N3CCCCC3)cc2C)c(-c2csc(N3C[C@H]4CC[C@@H](C3)[C@@]4(C)C(=O)O)n2)c1 [Compound 214] | 15 | < 0.1 | 21 (≈ 36.6 µM) | 22 | 51 (≈ 88.9 µM) |
| Cc1ccc(OCc2ccc(CN3CCS(=O)(=O)CC3)cc2C)c(-c2csc(N3CCC4(C(=O)O)CC4C3)n2)c1 (stereo not drawn) [Compound 217] | 8.7 | 0.95 (≈ 1.63 µM) | 34 (≈ 58.4 µM) | 49 |  |
| Cc1ccc(OCc2ccc(CN3CCOCC3)cc2C)c(-c2csc(N3CCC4(C(=O)O)CC4C3)n2)c1 (stereo not drawn) [Compound 218] | 18 | > 64 | 39 (≈ 73.1 µM) | 170 |  |
| Cc1ccc(OCc2ccc(CN3CCS(=O)(=O)CC3)cc2C)c(-c2csc(N3CCC(CC(=O)O)CC3)n2)c1 [Compound 219] | 300 | 2.4 (≈ 4.11 µM) | 41 (≈ 70.2 µM) | 1000 |  |
| Cc1ccc(OCc2ccc(CN3CCS(=O)(=O)CC3)cc2C)c(-c2csc(N3CCCC(C(=O)O)CC3)n2)c1 (stereo not drawn) [Compound 234] | 7.9 | 3.3 (≈ 5.65 µM) | > 58 | 6 |  |
| Cc1ccc(OCc2ccc(CN3CCS(=O)(=O)CC3)cc2C)c(-c2csc(N3C[C@H]4C[C@@H](C3)[C@H]4C(=O)O)n2)c1 [Compound 235] | 57 | 8.1 (≈ 13.9 µM) | > 58 | 47 |  |
| Cc1ccc(OCc2ccc(C(=O)N3CCCCC3)cc2C)c(-c2csc(N3C[C@H]4C[C@@H](C3)[C@H]4C(=O)O)n2)c1 [Compound 236] | 79 | 6.6 (≈ 12.1 µM) | > 54 | 190 |  |
| Cc1ccc(OCc2ccc(CN3CCOCC3)cc2C)c(-c2csc(N3C[C@H]4C[C@@H](C3)[C@H]4C(=O)O)n2)c1 [Compound 237] | 130 | > 53 | > 53 | 240 |  |
| Cc1ccc(OCc2ccc(C(=O)N3CCCCC3)cc2C)c(-c2csc(N[C@@H]3CC[C@H](C(=O)O)C3)n2)c1 [Compound 239] | 650 | 2.7 (≈ 5.06 µM) | > 53 | 2900 |  |
| Cc1cc(C(=O)N2CCCCC2)ccc1COc1ccc(Cl)cc1-c1csc(N2CCC(C(=O)O)CC2)n1 [Compound 271] | 19 | 3.7 (≈ 6.68 µM) | 21 (≈ 37.9 µM) | 45 |  |
| Cc1cc(CN2CCS(=O)(=O)CC2)ccc1COc1ccccc1-c1csc(N2CCC(C(=O)O)CC2)n1 [Compound 272] | 110 | 14 (≈ 25.2 µM) | > 160 | 120 |  |
| Cc1cc(CN2CCS(=O)(=O)CC2)ccc1COc1ccc(C#N)cc1-c1csc(N2CCC(C(=O)O)CC2)n1 [Compound 273] | 570 | 7.3 (≈ 12.6 µM) | > 82 | 320 |  |
| Cc1cc(C(=O)N2CCCCC2)ccc1COc1ccc(C#N)cc1-c1csc(N2CCC(C(=O)O)CC2)n1 [Compound 274] | 600 | 0.95 (≈ 1.74 µM) | > 54 | 1600 |  |
| Cc1cc(CN2CCS(=O)(=O)CC2)ccc1COc1ccc(F)cc1-c1csc(N2CC3CCC(C2)C3C(=O)O)n1 (stereo not drawn) [Compound 275] | 670 | 0.6 (≈ 1 µM) | 4 (≈ 6.67 µM) | 1800 |  |
| Cc1ccc(OCc2ccc(CN3CCOCC3)cc2OC(F)(F)F)c(-c2csc(N3CCC(C(=O)O)CC3)n2)c1 [Compound 277] | 16 | 21 (≈ 35.5 µM) | 41 (≈ 69.3 µM) | 74 |  |
| Cc1ccc(OCc2ccc(CN3CCN4CCCC4C3)cc2C)c(-c2csc(N3CCC(C(=O)O)CC3)n2)c1 (stereo not drawn) [Compound 350] | 170 | > 56 | > 56 | 260 |  |
| Cc1ccc(OCc2ccc(CN3CCOC(C)(C)C3)cc2C#N)c(-c2csc(N3C[C@H]4CC[C@@H](C3)[C@H]4C(=O)O)n2)c1 [Compound 358] | 30 | 0.14 (≈ 0.239 µM) |  |  | 8.1 (≈ 13.8 µM) |
| Cc1ccc(OCc2ccc(CN3CCOCC3C)cc2C#N)c(-c2csc(N3C[C@H]4CC[C@@H](C3)[C@H]4C(=O)O)n2)c1 (stereo partly drawn) [Compound 359] | 36 | 12 (≈ 21 µM) |  |  | 5.8 (≈ 10.1 µM) |
| Cc1ccc(OCc2ccc(C(=O)N3CC(F)(F)C3)cc2C)c(-c2csc(N3C[C@H]4CC[C@@H](C3)[C@H]4C(=O)O)n2)c1 [Compound 360] | 21 |  |  |  | 33 (≈ 58.1 µM) |
| Cc1ccc(OCc2ccc(C(=O)N3CCC3)cc2C)c(-c2csc(N3C[C@H]4CC[C@@H](C3)[C@H]4C(=O)O)n2)c1 [Compound 361, 3-(4-{2-[4-(azetidine-1-carbonyl)-2-methyl-benzyloxy]-5-methyl-phenyl}-thiazol-2-yl)-3-aza-bicyclo[3.2.1]octane-8(syn)-carboxylic acid] | 17 |  |  |  | 34 (≈ 63.9 µM) |
